Reference: patent US7270966B2, “Human pyrimidine receptor” (Euroscreen SA, priority 1995, dated 2007)
Read-outs that look alike come from different tables or passages of the source. Each block holds one compound with its values, some of them ahead of it.

Tests used:
human P2Y4 receptor [1] = biological target: T1, human P2Y4 receptor (Homo sapiens, UniProt P51582); test: InsP3 accumulation in 1321N1 cells expressing the human P2Y4 receptor; assay type: cell-based; conditions: for agonist effect on InsP3 at 30 s: 30 s incubation, 100 μM; for functional response (IP3 accumulation) in pool of G418-resistant clones: pool of transfected 1321N1 clones; for effect per se on InsP3 production: agonist alone
T1 construct: expressed in transfected cells; host or cells: 1321N1 human astrocytoma cells, G418-selected clone, pcDNA3-P2Y4
Method: Cells were transfected with the recombinant pcDNA3 plasmid (pcDNA3-P2Y4) using the calcium phosphate precipitation method as described (16). 1321N1 cells were incubated for 6 hours at 37° C. in the presence of pcDNA3 vector alone or vector containing the P2Y4 receptor coding sequence, then washed and incubated in culture medium (10% FCS, 100 U/ml penicillin, 100 μ/ml streptomycin and 2.5 μg/ml amphotericin B in Dulbecco's modified Eagle's medium (DMEM)). The selection with G418 (400 μg/ml) was started two days after transfection. From the pool of transfected 1321N1 cells, individual clones were isolated by limiting dilution with the aim of selecting clones with high IP stimulation factors in response to nucleotides. The different clones were maintained in a medium containing 400 μg/ml G418.
(§1) 1321N1 cells were labeled for 24 hours with 10 μCi/ml [^3H] inositol in inositol-free DMEM (Dulbecco's modified Eagle's medium) medium containing 5% fetal calf serum, 100 U/ml penicillin, 100 μg/ml streptomycin, 2.5 μg/ml amphotericin B and 400 μg/ml G418. Cells were washed twice with KRH (Krebs-Ringer Hepes) buffer of the following composition: (124 mM NaCl, 5 mM KCl, 1.25 mM MgSC4, 1.45 mM CaCl2, 25 mM Hepes (pH 7.4) and 8 mM glucose) and incubated in this medium for 30 min The agonists were added in the presence of LiCl (10 mM) and the incubation was stopped after 30 s, 5 min or 20 min by the addition of an ice-cold 3% perchloric acid solution. For the time course study, LiCl (10 mM) was added 5 min before the agonists and the incubation was stopped at different times. When tested, pertussis toxin (20 ng/ml) was added for 18 h during the labeling period time and during the stimulation by the agonist. Inositol phosphates were extracted and InsP3 was isolated by chromatography on Dowex column as described previously (17).

[2] = tested on: muscarinic receptors endogenously expressed in the 1321N1 cells; test: Action of carbachol (InsP3) via muscarinic receptors endogenously expressed in 1321N1 cells; assay type: cell-based, human; conditions: cells transfected with P2Y4-pcDNA3 or vector alone
Method: as §1
The maximal effect of ATP observed after a 20 min incubation represented about 27±9% of that of UTP (mean±S.D. of ten experiments). […] The ATP concentration-inhibition curves were shifted to the right when the UTP concentration was increased, indicating the competitive nature of this inhibitory effect (panels A and B). On the other hand, at lower concentrations (30-300 μM), ATP enhanced the response to UTP by 29% (range 12-47%, mean of four experiments) (panel B). […] This observation was reproduced with cells transfected with the recombinant P2Y4-pcDNA3 plasmid or with the vector alone and was also obtained with AMP and adenosine (data not shown).

human P2Y4 receptor [3] = biological target: T1, human P2Y4 receptor; test: Radioligand binding of [α32P]UTP to membranes of P2Y4-transfected 1321N1 clones; conditions: clones 2, 11 and 21; 0.5 nM radioligand; data not shown
Method: Binding assays of [α^32P] UTP to cell membranes were carried out in Tris-HCl (50 mM, pH 7.5), EDTA 1 mM in a final volume of 0.5 ml, containing 25-50 μg of protein and 0.5 nM of radioligand (27). The assays were conducted at 30° C. for 5 min. Incubations were stopped by the addition of 4 ml of ice-cold Tris-HCl (50 mM, pH 7.5) and rapid filtration through Whatman GF/B filters under reduced pressure. The filters were then washed three times with 2 ml of the same ice-cold Tris-HCl buffer. Radioactivity was quantified by liquid scintillation counting, after an overnight incubation of the filters in liquid scintillation mixture.

[4] = 20 min incubation, 10 mM LiCl, read-out: EC50 InsP3 accumulation, full concentration-action curves
[5] = clone 2, 20 min incubation, 10 mM LiCl, read-out: EC50 InsP3 production
[6] = clone 11, 20 min incubation, 10 mM LiCl, read-out: EC50 InsP3 production
[7] = clone 21, 20 min incubation, 10 mM LiCl, read-out: EC50 InsP3 production
[8] = antagonist 100 μM, UTP 2 and 10 μM, 20 min

T1 sequence (P51582 whole entry): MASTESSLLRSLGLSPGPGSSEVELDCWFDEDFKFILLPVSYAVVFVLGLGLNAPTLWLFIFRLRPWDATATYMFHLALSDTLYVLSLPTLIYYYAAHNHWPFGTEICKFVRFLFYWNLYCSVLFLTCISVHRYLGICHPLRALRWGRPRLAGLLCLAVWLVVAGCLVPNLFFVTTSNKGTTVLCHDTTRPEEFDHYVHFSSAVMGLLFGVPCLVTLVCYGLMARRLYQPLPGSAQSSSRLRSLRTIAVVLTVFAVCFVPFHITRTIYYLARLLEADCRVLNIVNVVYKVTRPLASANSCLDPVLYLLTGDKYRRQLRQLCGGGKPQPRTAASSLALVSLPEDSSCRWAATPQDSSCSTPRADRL

Compound: pertussis toxin
inhibition of the UTP response by pertussis toxin (human P2Y4 receptor [1]; 20 ng/ml, 18 hours pretreatment, UTP 100 μM, 30 s): 62±5%
effect of pertussis toxin on the UTP response (human P2Y4 receptor [1]; 20 ng/ml, 18 hours pretreatment, UTP 100 μM, 5 min): no significant effect
effect of pertussis toxin on the UTP response (human P2Y4 receptor [1]; 20 ng/ml, 18 hours pretreatment, UTP 100 μM, 20 min): no significant effect

agonist effect on InsP3 at 30 s (human P2Y4 receptor [1]): barely or not active
EC50 (human P2Y4 receptor [1]; [4]): 19.5 ± 3.9 µM
EC50 (human P2Y4 receptor [1]; [5]): 3.3 ± 0.6 µM
EC50 (human P2Y4 receptor [1]; [6]): 19.8 ± 4.8 µM
EC50 (human P2Y4 receptor [1]; [7]): 3.2 ± 0.8 µM
Compound: O=c1ccn([C@@H]2O[C@H](COP(=O)(O)OP(=O)(O)O)[C@@H](O)[C@H]2O)c(=O)[nH]1 [UDP]

inhibition of the UTP response by antagonist (human P2Y4 receptor [1]; [8]): inactive
Compound: Cc1ccc(C(=O)Nc2ccc(S(=O)(=O)O)c3cc(S(=O)(=O)O)cc(S(=O)(=O)O)c23)cc1NC(=O)c1cccc(NC(=O)Nc2cccc(C(=O)Nc3cc(C(=O)Nc4ccc(S(=O)(=O)O)c5cc(S(=O)(=O)O)cc(S(=O)(=O)O)c45)ccc3C)c2)c1 [suramin]

agonist effect on InsP3 at 30 s (human P2Y4 receptor [1]): no effect
EC50 (human P2Y4 receptor [1]; [4]): ~43 µM
maximal effect relative to that of UTP (human P2Y4 receptor [1]; 20 min incubation, % of UTP maximal effect): about 27±9%
enhancement of the response to UTP (human P2Y4 receptor [1]; ATP 30-300 μM, 20 min): 29%
antagonism of the response to UTP (human P2Y4 receptor [1]; UTP 10 μM, ATP 2 mM, 30 s): fully antagonized
inhibition of the UTP effect (human P2Y4 receptor [1]; UTP 10 μM, ATP 2 mM, 20 min): 62±11%
ATP concentration able to inhibit the effect of UTP (human P2Y4 receptor [1]; both at 30 s and 20 min): ≥ 500 µM
functional response (IP3 accumulation) in pool of G418-resistant clones (human P2Y4 receptor [1]): agonists
Compound: Nc1ncnc2c1ncn2[C@@H]1O[C@H](COP(=O)(O)OP(=O)(O)OP(=O)(O)O)[C@@H](O)[C@H]1O [ATP]
effect on the action of carbachol [2]: increased

agonist effect on InsP3 at 30 s (human P2Y4 receptor [1]): barely or not active
EC50 (human P2Y4 receptor [1]; [4]): 27.1 ± 1.9 µM
Compound: O=c1[nH]c(=O)n([C@@H]2O[C@H](COP(=O)(O)OP(=O)(O)OP(=O)(O)O)[C@@H](O)[C@H]2O)cc1Br [5BrUTP]

inhibition of the UTP response by antagonist (human P2Y4 receptor [1]; [8]): 73±14%
IC50 (human P2Y4 receptor [1]; data not shown, read-out: IC50 for inhibition of the UTP response): ~15 µM
Compound: Cc1nc(N=Nc2ccc(S(=O)(=O)O)cc2S(=O)(=O)O)c(COP(=O)(O)O)c(C=O)c1O [PPADS]

Compound: O=c1ccn([C@@H]2O[C@H](COP(=O)(O)OP(=O)(O)OP(=O)(O)O)[C@@H](O)[C@H]2O)c(=O)[nH]1 [UTP, uridine triphosphate]
EC50 (human P2Y4 receptor [1]; 20 min, 100 μM PPADS, read-out: EC50 value for UTP in the presence of PPADS): 12.2 ± 4.5 µM
EC50 (human P2Y4 receptor [1]; 20 min, no PPADS, read-out: EC50 value for UTP in the absence of PPADS): 3.3 ± 0.6 µM
EC50 (human P2Y4 receptor [1]; [4]): 2.5 ± 0.6 µM
EC50 (human P2Y4 receptor [1]; [5]): 0.3 ± 0.1 µM
potency of UTP relative to UDP (human P2Y4 receptor [1]; clone 11, 20 min incubation): 10 fold
EC50 (human P2Y4 receptor [1]; [6]): 2.4 ± 0.1 µM
EC50 (human P2Y4 receptor [1]; [7]): 0.3 ± 0.1 µM
functional response (IP3 accumulation) in pool of G418-resistant clones (human P2Y4 receptor [1]): agonists

effect per se on InsP3 production (human P2Y4 receptor [1]; data not shown): without any effect
Compound: Nc1ncnc2c1ncn2[C@@H]1O[C@H](COP(=O)(O)O)[C@@H](O)[C@H]1O [AMP]
effect on the action of carbachol [2]: increased

inhibition of the action of UTP (qualitative) (human P2Y4 receptor [1]): did not inhibit
stimulation by UTP in presence of ADP, relative to UTP alone (human P2Y4 receptor [1]; ADP 100 μM, UTP 10 μM): 158±15%
effect per se on InsP3 production (human P2Y4 receptor [1]; data not shown): almost no effect
Compound: Nc1ncnc2c1ncn2[C@@H]1O[C@H](COP(=O)(O)OP(=O)(O)O)[C@@H](O)[C@H]1O [ADP]
effect on the action of carbachol [2]: increased

specific binding versus cells transfected with the vector alone (human P2Y4 receptor [3]): no increase in specific binding
Compound: O=c1ccn(C2OC(CO[32P](=O)(O)OP(=O)(O)OP(=O)(O)O)C(O)C2O)c(=O)[nH]1 (stereo not drawn) [[α^32P] UTP]

effect per se on InsP3 production (human P2Y4 receptor [1]; data not shown): without any effect
Compound: Nc1ncnc2c1ncn2[C@@H]1O[C@H](COP(=O)(O)OP(=O)(O)OP(O)(O)=S)[C@@H](O)[C@H]1O [ATPyS]

effect per se on InsP3 production (human P2Y4 receptor [1]; data not shown): without any effect
Compound: O=c1ccn([C@@H]2O[C@H](COP(=O)(O)O)[C@@H](O)[C@H]2O)c(=O)[nH]1 [UMP]

agonist effect on InsP3 at 30 s (human P2Y4 receptor [1]): barely or not active
EC50 (human P2Y4 receptor [1]; [4]): 32.8 ± 5.4 µM
Compound: O=c1[nH]cnc2c1ncn2[C@@H]1O[C@H](COP(=O)(O)OP(=O)(O)OP(=O)(O)O)[C@@H](O)[C@H]1O [ITP]

effect per se on InsP3 production (human P2Y4 receptor [1]; data not shown): without any effect
Compound: O=c1ccn([C@@H]2O[C@H](CO)[C@@H](O)[C@H]2O)c(=O)[nH]1 [uridine]

Compound: Nc1c(S(=O)(=O)O)cc(Nc2ccc(Nc3nc(Cl)nc(Nc4cccc(S(=O)(=O)O)c4)n3)c(S(=O)(=O)O)c2)c2c1C(=O)c1ccccc1C2=O [RB-2, reactive blue 2]
inhibition of the UTP response by antagonist (human P2Y4 receptor [1]): 33±5%

agonist effect on InsP3 at 30 s (human P2Y4 receptor [1]): barely or not active
EC50 (human P2Y4 receptor [1]; [4]): 20 ± 2.3 µM
Compound: O=c1ccn([C@H]2C[C@H](O)[C@@H](COP(=O)(O)OP(=O)(O)OP(=O)(O)O)O2)c(=O)[nH]1 [dUTP]

Compound: Nc1ncnc2c1ncn2[C@@H]1O[C@H](CO)[C@@H](O)[C@H]1O [adenosine]
effect per se on InsP3 production (human P2Y4 receptor [1]; data not shown): without any effect
effect on the action of carbachol [2]: increased
